Where two headings read alike, the source gives them in different places. *1 amine or outer side, *2 acyl side, *3 side chain or, on linkers, in order; H or OH if unused. Where a SMILES comes first, the peptide text is derived from it. Bridges are numbered along the chain shown (N, C = ends). [ ]: non-standard residue; d: D form. The star is where a group is joined. hPhe(3-Cl-4-CF3) = N[C@@H](CCc1ccc(C(F)(F)F)c(Cl)c1)C(=O)O; NPrPhe(4-CF3) = CCCN[C@@H](Cc1ccc(C(F)(F)F)cc1)C(=O)O; X13 = CCCN([C@@H](COC1CCC1)C(=O)[*:2])[*:1]; NMeGly(cPent) = CN[C@H](C(=O)O)C1CCCC1; X9 = CC1(C)CN([*:1])[C@@H]1C(=O)[*:2]; Hyp = O=C(O)[C@@H]1C[C@@H](O)CN1; NMeD = CN[C@@H](CC(=O)O)C(=O)O; NMeL = CN[C@@H](CC(C)C)C(=O)O; Morpholide = C1CN(*)CCO1; Ac5c = NC1(C(=O)O)CCCC1; Ac4c = NC1(C(=O)O)CCC1; Sar = CNCC(=O)O
What was measured:
[1] = molecular target: GDP-bound NRAS wild-type protein (Homo sapiens, UniProt P01111); assay: Binding to NRAS by surface plasmon resonance (SPR), KD and KD ratio to KRAS
How it was run: (§1)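 Captured GDP-RAS (~100–300 RU) was exposed to increasing compound concentrations, 75 s per step, in running buffer with 10 µM GDP, 10 mM MgCl2 and 4% DMSO at pH 7.4.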

[2] = system: human lung cancer strain NCI-H441; format: cell-based
How it was run: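 Step one: dispense the test compound in serial DMSO dilutions. Step three: add the reagent and measure […].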

HRAS wild-type protein = HRAS wild-type protein (Homo sapiens, UniProt P01112); assay: Binding to HRAS by surface plasmon resonance (SPR), KD and KD ratio to KRAS
How it was run: as §1

[3] = ratio of KD value for GDP-bound NRAS wild-type protein to KD value for KRAS (SPR)
[4] = ratio of KD value for HRAS wild-type protein to KD value for KRAS (SPR)
[5] = ratio of KD for GDP-bound NRAS wild-type protein to KD for KRAS
[6] = ratio of KD for HRAS wild-type protein to KD for KRAS
[7] = ratio of the KD value with respect to GDP-bound NRAS wild-type protein to the KD value with respect to KRAS
[8] = ratio of the KD value with respect to HRAS wild-type protein to the KD value with respect to KRAS

Sequence of GDP-bound NRAS wild-type protein (P01111 whole entry): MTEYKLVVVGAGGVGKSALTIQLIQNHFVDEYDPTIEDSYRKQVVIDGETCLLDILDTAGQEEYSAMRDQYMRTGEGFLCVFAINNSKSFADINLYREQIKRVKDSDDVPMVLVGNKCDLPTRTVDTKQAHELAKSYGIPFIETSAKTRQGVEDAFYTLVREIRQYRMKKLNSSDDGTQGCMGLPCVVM
Sequence of HRAS wild-type protein (P01112 whole entry): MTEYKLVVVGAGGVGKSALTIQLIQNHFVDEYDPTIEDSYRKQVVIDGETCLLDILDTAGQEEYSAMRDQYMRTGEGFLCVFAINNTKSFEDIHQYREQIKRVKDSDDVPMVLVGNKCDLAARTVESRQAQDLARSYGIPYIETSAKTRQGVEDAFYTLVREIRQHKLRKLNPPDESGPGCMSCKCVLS

Row | Structure (SMILES) | NRAS /KRAS [1, 3] | IC50 [2] [nM] | HRAS /KRAS (HRAS wild-type protein; [4]) | NRAS /KRAS [1, 5] | HRAS /KRAS (HRAS wild-type protein; [6]) | NRAS /KRAS [1, 7] | HRAS /KRAS (HRAS wild-type protein; [8]) | IC50 ([2]; NCI-H441 cells, 4 days, CellTiter-Glo, read-out: NCl-H441 IC50) [nM]
1 | CCCN(C)C(=O)[C@@H]1CC(=O)N(C)[C@@H](CC(F)(F)F)C(=O)N[C@@H]([C@@H](C)CC)C(=O)N(C)CC(=O)N(C)[C@H]2C/C=C\CCN(C2=O)[C@@H](Cc2ccc(C(F)(F)F)cc2)C(=O)N(C)CC(=O)N[C@@H](CCc2cc(F)c(C(F)(F)F)c(F)c2)C(=O)N2C[C@H](OCC)C[C@H]2C(=O)NC2(CC(F)(F)C2)C(=O)N(C)[C@@H](C2CCCC2)C(=O)N1C [PP1734] | A (a compound having 10 or more and less than 20 is denoted as A) | 4.4 | A (a compound having 10 or more and less than 20 is denoted as A) | – | – | – | – | –
2 | CCCN1C(=O)CN(C)C(=O)[C@H]2N(CC2(C)C)C(=O)[C@H]([C@@H](C)CC)NC(=O)[C@H](CC(C)C)N(C)C(=O)C[C@@H](C(=O)N2CCOCC2)N(C)C(=O)[C@H](C2CCCC2)N(C)C(=O)C2(CCCC2)NC(=O)[C@@H]2CCCN2C(=O)[C@H](CCc2ccc(C(F)(F)F)c(Cl)c2)NC(=O)CN(C)C(=O)[C@@H]1Cc1ccc(C(F)(F)F)cc1 [PP0256] ([NMeL]I[X9][Sar][NPrPhe(4-CF3)][Sar][hPhe(3-Cl-4-CF3)]P[Ac5c][NMeGly(cPent)][NMeD]-Morpholide; lactam N-11) | – | 26.6 | – | B (a compound having 3 or more and less than 10 is denoted as B) | C (A compound having a KD ratio of 0.1 or more and less than 3 is denoted as C) | – | – | –
3 | CCO[C@@H]1C[C@H]2C(=O)NC3(CC(C)(C)C3)C(=O)N(C)[C@@H](C(CC)CC)C(=O)N(C)[C@H](C(=O)N(C)C)CC(=O)N(C)[C@@H](CC)C(=O)N[C@@H]([C@@H](C)CC)C(=O)N(C)CC(=O)N(C)[C@H]3C/C=C\CCN(C3=O)[C@@H](Cc3ccc(C(F)(F)F)cc3)C(=O)N(C)CC(=O)N[C@@H](CCc3ccc(C(F)(F)F)c(OC)c3)C(=O)N2C1 [PP2066] | – | 3.2 | – | – | – | A (a compound having 10 or more and less than 20 is denoted as A) | B (a compound having 3 or more and less than 10 is denoted as B) | –
4 | CCO[C@@H]1C[C@H]2C(=O)NC3(CCCC3)C(=O)N(C)[C@@H](C3CCCC3)C(=O)N(C)[C@H](C(=O)N3CCOCC3)CC(=O)N(C)[C@@H](CC(C)C)C(=O)N[C@@H]([C@@H](C)CC)C(=O)N(C)CC(=O)N(C)[C@H]3C[C@@H](C)CCN(C3=O)[C@@H](Cc3ccc(C(F)(F)F)cc3)C(=O)N(C)CC(=O)N[C@@H](CCc3cc(F)c(C(F)(F)F)c(F)c3)C(=O)N2C1 [PP1024] | – | 12.7 | – | B (a compound having 3 or more and less than 10 is denoted as B) | B (a compound having 3 or more and less than 10 is denoted as B) | – | – | –
5 | CC[C@H](C)[C@@H]1NC(=O)[C@H](CC(C)C)N(C)C(=O)C[C@@H](C(=O)N(C)C)N(C)C(=O)[C@H](C2CCCC2)N(C)C(=O)C2(CCCC2)NC(=O)[C@@H]2CCCN2C(=O)[C@H](CCc2cc(F)c(C(F)(F)F)c(F)c2)NC(=O)CN(C)C(=O)[C@H](Cc2ccc(C(F)(F)F)cc2)N2CCCCC[C@@H](C2=O)N(C)C(=O)CN(C)C1=O [PP0507] | – | 62.1 | – | – | – | B (a compound having 3 or more and less than 10 is denoted as B) | B (a compound having 3 or more and less than 10 is denoted as B) | –
6 | CCC[C@H]1C(=O)N[C@@H]([C@@H](C)CC)C(=O)N(C)CC(=O)N(C)[C@H]2C/C=C\CCN(C2=O)[C@@H](Cc2ccc(C(F)(F)F)cc2)C(=O)N(C)CC(=O)N[C@@H](CCc2ccc(C(F)(F)F)c(OC)c2)C(=O)N2CCCCC[C@H]2C(=O)NC2(CC(C)(C)C2)C(=O)N(C)[C@@H](C(CC)CC)C(=O)N(C)[C@H](C(=O)N(C)C)CC(=O)N1C [PP2968] | – | 29.5 | – | AA (a compound having 20 or more is denoted as AA) | A (a compound having 10 or more and less than 20 is denoted as A) | – | – | –
7 | CC[C@H](C)[C@@H]1NC(=O)[C@@H]2CCCc3ccc(cc3)C[C@@H](C(=O)N(C)CC(=O)N[C@@H](CCc3ccc(C(F)(F)F)c(OC)c3)C(=O)N3C[C@H](OC4CCC4)C[C@H]3C(=O)NC3(CC(C)(C)C3)C(=O)N(C)[C@@H](C3CCCC3)C(=O)N(C)[C@H](C(=O)N(C)CC)CC(=O)N2C)N2CC/C=C\C[C@@H](C2=O)N(C)C(=O)CN(C)C1=O [PP3085] | – | 6.3 | – | A (a compound having 10 or more and less than 20 is denoted as A) | B (a compound having 3 or more and less than 10 is denoted as B) | – | – | –
8 | CCC[C@H]1C(=O)N[C@@H]([C@@H](C)CC)C(=O)N(C)CC(=O)N(C)[C@H]2C/C=C\CCN(C2=O)[C@@H](Cc2ccc(C(F)(F)F)cc2)C(=O)N(C)CC(=O)N[C@@H](CCc2ccc(C3CC3)c(OC)c2)C(=O)N2C[C@H](OCC)C[C@H]2C(=O)NC2(CC(C)(C)C2)C(=O)N(C)[C@@H](C2CCCC2)C(=O)N(C)[C@H](C(=O)N(C)C)CC(=O)N1C [PP2853] | – | – | – | A (a compound having 10 or more and less than 20 is denoted as A) | A (a compound having 10 or more and less than 20 is denoted as A) | – | – | 40.2
9 | CCO[C@@H]1C[C@H]2C(=O)NC3(CCCC3)C(=O)N(C)[C@@H](C3CCCC3)C(=O)N(C)[C@H](C(=O)N(C)C)CC(=O)N(C)[C@@H](CC)C(=O)N[C@@H]([C@@H](C)CC)C(=O)N(C)CC(=O)N(C)[C@H]3C/C=C\CCN(C3=O)[C@@H](Cc3ccc(C(F)(F)F)cc3)C(=O)N(C)CC(=O)N[C@@H](CCc3cc(C)c(Cl)c(C)c3)C(=O)N2C1 [PP1823] | A (a compound having 10 or more and less than 20 is denoted as A) | 55.9 | A (a compound having 10 or more and less than 20 is denoted as A) | – | – | – | – | –
10 | CCCN1C(=O)CN(C)C(=O)CN(C)C(=O)[C@H]([C@@H](C)CC)NC(=O)[C@H](CC(C)C)N(C)C(=O)C[C@@H](C(=O)N2CCOCC2)NC(=O)[C@H](C2CCCC2)N(C)C(=O)C2(CCCC2)NC(=O)[C@@H]2C[C@@H](OCC)CN2C(=O)[C@H](CCc2ccc(C(F)(F)F)c(Cl)c2)NC(=O)CN(C)C(=O)[C@@H]1Cc1ccc(C(F)(F)F)cc1 [PP0323] ([NMeL]I[Sar][Sar][NPrPhe(4-CF3)][Sar][hPhe(3-Cl-4-CF3)][Hyp](Et)[Ac5c][NMeGly(cPent)]D-Morpholide; lactam N-11) | – | 64 | – | B (a compound having 3 or more and less than 10 is denoted as B) | B (a compound having 3 or more and less than 10 is denoted as B) | – | – | –
11 | CCC[C@@H]1C[C@H]2C(=O)NC3(CC(C)(C)C3)C(=O)N(C)[C@@H](C3CCCC3)C(=O)N(C)[C@H](C(=O)N(C)C)CC(=O)N(C)[C@@H](C)C(=O)N[C@@H]([C@@H](C)CC)C(=O)N(C)CC(=O)N(C)[C@H]3C/C=C\CCN(C3=O)[C@@H](Cc3ccc(C(F)(F)F)cc3)C(=O)N(C)CC(=O)N[C@@H](CCc3cc(F)c(C(F)(F)F)c(F)c3)C(=O)N2C1 [PP2273] | – | 16 | – | – | – | AA (a compound having 20 or more is denoted as AA) | A (a compound having 10 or more and less than 20 is denoted as A) | –
12 | CCCN1C(=O)CN(C)C(=O)CNC(=O)[C@H]([C@@H](C)CC)NC(=O)[C@H](CC(C)C)N(C)C(=O)C[C@@H](C(=O)N2CCOCC2)NC(=O)[C@H](C2CCCC2)N(C)C(=O)C2(CCCC2)NC(=O)[C@@H]2CCCN2C(=O)[C@H](CCc2ccc(C(F)(F)F)c(Cl)c2)NC(=O)CN(C)C(=O)[C@@H]1Cc1ccc(C(F)(F)F)cc1 [PP0325] ([NMeL]IG[Sar][NPrPhe(4-CF3)][Sar][hPhe(3-Cl-4-CF3)]P[Ac5c][NMeGly(cPent)]D-Morpholide; lactam N-11) | – | 163 | – | B (a compound having 3 or more and less than 10 is denoted as B) | B (a compound having 3 or more and less than 10 is denoted as B) | – | – | –
13 | CCCN1C(=O)CN(C)C(=O)CN(C)C(=O)[C@H]([C@@H](C)CC)NC(=O)[C@H](CC(C)C)N(C)C(=O)C[C@@H](C(=O)N2CCOCC2)N(C)C(=O)[C@H](C2CCCC2)N(C)C(=O)C2(CCC2)NC(=O)[C@@H]2CCCN2C(=O)[C@H](CCc2ccc(C(F)(F)F)c(Cl)c2)NC(=O)CN(C)C(=O)[C@@H]1COC1CCC1 [PP1816] ([NMeL]I[Sar][Sar][X13][Sar][hPhe(3-Cl-4-CF3)]P[Ac4c][NMeGly(cPent)][NMeD]-Morpholide; lactam N-11) | B (a compound having 3 or more and less than 10 is denoted as B) | 63.8 | C (A compound having a KD ratio of 0.1 or more and less than 3 is denoted as C) | – | – | – | – | –
14 | CCO[C@@H]1C[C@H]2C(=O)NC3(CCC3)C(=O)N(C)[C@@H](C(CC)CC)C(=O)N(C)[C@H](C(=O)N(C)C)CC(=O)N(C)[C@@H](CC3CCCC3)C(=O)N[C@@H]([C@@H](C)CC)C(=O)N(C)CC(=O)N(C)[C@H]3C/C=C\CCN(C3=O)[C@@H](Cc3ccc(F)cc3)C(=O)N(C)CC(=O)N[C@@H](CCc3cc(F)c(C(F)(F)F)c(F)c3)C(=O)N2C1 [PP1517] | A (a compound having 10 or more and less than 20 is denoted as A) | 33.6 | A (a compound having 10 or more and less than 20 is denoted as A) | – | – | – | – | –
15 | CCO[C@@H]1C[C@H]2C(=O)NC3(CC(C)(C)C3)C(=O)N(C)[C@@H](C3CCCC3)C(=O)N(C)[C@H](C(=O)N(C)C)CC(=O)N3CCCCC[C@H]3C(=O)N[C@@H]([C@@H](C)CC)C(=O)N(C)CC(=O)N(C)[C@H]3C/C=C\CCN(C3=O)[C@@H](Cc3ccc(C(F)(F)F)cc3)C(=O)N(C)CC(=O)N[C@@H](CCc3cc(F)c(C(F)(F)F)c(F)c3)C(=O)N2C1 [PP1915] | – | 18.5 | – | – | – | A (a compound having 10 or more and less than 20 is denoted as A) | A (a compound having 10 or more and less than 20 is denoted as A) | –
